Assay results taken from US20230399312A1, “SUBSTITUTED PYRIMIDINES AND METHODS OF USE” (THERAVANCE BIOPHARMA R&D IP, LLC, priority 2020, published 2023).

Experiments:
[1] = target: T1, recombinant human ALK5 (TGF-βR1) protein (Homo sapiens, UniProt P36897); assay: Biochemical ALK5 (TGF-βR1) assay to measure pKi (LANCE Ultra ULight kinase assay); settings: apparent pKi, converted from pIC50 by Cheng-Prusoff
T1 construct: purchased Life Technologies PR9075A
T1 sequence (P36897 34-503): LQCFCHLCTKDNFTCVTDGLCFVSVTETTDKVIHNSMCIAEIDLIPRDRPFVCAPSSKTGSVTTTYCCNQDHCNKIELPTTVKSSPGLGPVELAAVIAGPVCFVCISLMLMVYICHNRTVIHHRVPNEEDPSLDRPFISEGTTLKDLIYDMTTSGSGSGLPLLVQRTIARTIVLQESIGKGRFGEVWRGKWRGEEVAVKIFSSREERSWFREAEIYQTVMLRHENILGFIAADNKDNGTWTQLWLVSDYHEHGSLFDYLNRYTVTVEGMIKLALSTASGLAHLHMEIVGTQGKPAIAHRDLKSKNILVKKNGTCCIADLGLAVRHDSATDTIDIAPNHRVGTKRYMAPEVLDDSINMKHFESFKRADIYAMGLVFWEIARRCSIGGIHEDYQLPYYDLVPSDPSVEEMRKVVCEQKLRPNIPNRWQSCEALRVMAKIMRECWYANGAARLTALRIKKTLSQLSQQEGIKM
Procedure, shortened: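 Dose-response series of each compound were preincubated with the kinase for 60 minutes at room temperature. Phosphorylation proceeded for 60 minutes at 37 °C after ATP addition, was quenched with EDTA, and was detected with a europium anti-phospho-Thr1342 antibody by TR-FRET; pKi was calculated from pIC50.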

[2] = tested on: TGF-β-stimulated SMAD3 phosphorylation in BEAS-2B cells; assay: Cellular ALK5 potency assay, inhibition of TGF-β stimulated pSMAD3 formation in BEAS-2B cells; type: cell-based; settings: Homo sapiens, pSMAD3, TGF-β 10 ng/mL, read-out: BEAS2B pIC50 (converted)
Procedure, shortened: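 Cells were seeded overnight, rinsed into HEPES/BSA-supplemented HBSS, and dosed with serially diluted compound for 1 h at 37 °C, 5% CO2. TGF-β stimulation (10 ng/mL final) followed for 30 min, then lysis and AlphaLISA pSMAD3 measurement; potency reported as pIC50.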

Ki [1] [nM] | Structure (SMILES) | IC50 [2] [nM]
0.0398 to 0.316 | Cc1cccc(-c2nccc(Nc3ccnc(Nc4nc(C5=CCNC5)cs4)n3)n2)n1 [Compound 626, N2-[4-(2,5-dihydro-1H-pyrrol-3-yl)thiazol-2-yl]-N4-[2-(6-methyl-2-pyridyl)pyrimidin-4-yl]pyrimidine-2,4-diamine] | 25.1 to 158
0.398 to 3.16 | Cc1cccc(-c2nccc(Nc3ccnc(Nc4ccc(N)c(C)c4)n3)n2)n1 [Compound 514, N2-(4-amino-3-methyl-phenyl)-N4-[2-(6-methyl-2-pyridyl)pyrimidin-4-yl]pyrimidine-2,4-diamine] | ≤ 20
0.398 to 3.16 | Cc1cccc(-c2nccc(Nc3ccnc(Nc4cncc(C(=O)OC[C@@H]5CCNC5)c4)n3)n2)n1 [Compound 570, [(3R)-pyrrolidin-3-yl]methyl 5-[[4-[[2-(6-methyl-2-pyridyl)pyrimidin-4-yl]amino]pyrimidin-2-yl]amino]pyridine-3-carboxylate] | 25.1 to 158
0.398 to 3.16 | Cc1cccc(-c2nccc(Nc3ccnc(Nc4cccc(C(=O)OCCN5CCNCC5)c4)n3)n2)n1 [Compound 553, 2-piperazin-1-ylethyl 3-[[4-[[2-(6-methyl-2-pyridyl)pyrimidin-4-yl]amino]pyrimidin-2-yl]amino]benzoate] | 25.1 to 158
0.0398 to 0.316 | Cc1cccc(-c2nccc(Nc3ccnc(Nc4ccc(CN5CC(C)(N)C5)cc4)n3)n2)n1 [Compound 438, N2-[4-[(3-amino-3-methyl-azetidin-1-yl)methyl]phenyl]-N4-[2-(6-methyl-2-pyridyl)pyrimidin-4-yl]pyrimidine-2,4-diamine] | 25.1 to 158
0.0398 to 0.316 | Cc1cccc(-c2nccc(Nc3ccnc(Nc4cccc(S(=O)(=O)NCCN)c4)n3)n2)n1 [Compound 430, N-(2-aminoethyl)-3-[[4-[[2-(6-methyl-2-pyridyl)pyrimidin-4-yl]amino]pyrimidin-2-yl]amino]benzenesulfonamide] | 25.1 to 158
0.398 to 3.16 | Cc1cccc(-c2nccc(Nc3ccnc(Nc4cc(C(=O)O)cs4)n3)n2)n1 [Compound 532, 5-[[4-[[2-(6-methyl-2-pyridyl)pyrimidin-4-yl]amino]pyrimidin-2-yl]amino]thiophene-3-carboxylic acid] | 200 to 1260
3.98 to 31.6 | CCOC(=O)Cc1cc(Nc2ccnc(Nc3ccc(N4CCNCC4)cc3)n2)nc(-c2cccc(C)n2)n1 [Compound 529, ethyl 2-[2-(6-methyl-2-pyridyl)-6-[[2-(4-piperazin-1-ylanilino)pyrimidin-4-yl]amino]pyrimidin-4-yl]acetate] | 25.1 to 158
0.0398 to 0.316 | Cc1cccc(-c2nccc(Nc3ccnc(Nc4ccc(N5CCN(C6CC6)CC5)cc4)n3)n2)n1 [Compound 457, N2-[4-(4-cyclopropylpiperazin-1-yl)phenyl]-N4-[2-(6-methyl-2-pyridyl)pyrimidin-4-yl]pyrimidine-2,4-diamine] | 25.1 to 158
3.98 to 31.6 | Cc1cccc(-c2nccc(Nc3ccnc(Nc4ccc(C(=O)O[C@@H]5CCNC5)cn4)n3)n2)n1 [Compound 574, [(3R)-pyrrolidin-3-yl] 6-[[4-[[2-(6-methyl-2-pyridyl)pyrimidin-4-yl]amino]pyrimidin-2-yl]amino]pyridine-3-carboxylate] | 200 to 1260
0.0398 to 0.316 | Cc1cccc(-c2nccc(Nc3ccnc(Nc4ccc(N5CCC(N(C)CC(C)C)CC5)cc4)n3)n2)n1 [Compound 393, N2-[4-[4-[isobutyl(methyl)amino]-1-piperidyl]phenyl]-N4-[2-(6-methyl-2-pyridyl)pyrimidin-4-yl]pyrimidine-2,4-diamine] | 25.1 to 158
0.398 to 3.16 | Cc1cccc(-c2nccc(Nc3ccnc(Nc4cncc(C(=O)OC[C@H]5CCCCN5)c4)n3)n2)n1 [Compound 641, [(2R)-2-piperidyl]methyl 5-[[4-[[2-(6-methyl-2-pyridyl)pyrimidin-4-yl]amino]pyrimidin-2-yl]amino]pyridine-3-carboxylate] | 25.1 to 158
0.0398 to 0.316 | Cc1cccc(-c2nccc(Nc3ccnc(Nc4csc(C(=O)OC5CCNCC5)c4)n3)n2)n1 [Compound 591, 4-piperidyl 4-[[4-[[2-(6-methyl-2-pyridyl)pyrimidin-4-yl]amino]pyrimidin-2-yl]amino]thiophene-2-carboxylate] | 25.1 to 158
0.0398 to 0.316 | Fc1ccc(Cl)cc1-c1ncc(C2CC2)c(Nc2ccnc(Nc3ccc(N4CCNCC4)cc3)n2)n1 [Compound 1013, N4-[2-(5-chloro-2-fluoro-phenyl)-5-cyclopropyl-pyrimidin-4-yl]-N2-(4-piperazin-1-ylphenyl)pyrimidine-2,4-diamine] | 200 to 1260

More lines, now with the values behind:

Structure (SMILES) | Ki [1] [nM] | IC50 [2] [nM]
CC(=O)Nc1ccc(Nc2nccc(Nc3ccnc(-c4cccc(C)n4)n3)n2)cc1 [Compound 316, N-[4-[[4-[[2-(6-methyl-2-pyridyl)pyrimidin-4-yl]amino]pyrimidin-2-yl]amino]phenyl]acetamide] | 0.398 to 3.16 | 25.1 to 158
Cc1cccc(-c2nccc(Nc3ccnc(Nc4csc(C(=O)NC5CNC5)c4)n3)n2)n1 [Compound 327, N-(azetidin-3-yl)-4-[[4-[[2-(6-methyl-2-pyridyl)pyrimidin-4-yl]amino]pyrimidin-2-yl]amino]thiophene-2-carboxamide] | ≤ 0.0316 | 25.1 to 158
Cc1ccc(O)cc1-c1nccc(Nc2ccnc(Nc3ccc(N4CCC(N5CCN(C)CC5)CC4)cc3)n2)n1 [Compound 255, 4-methyl-3-(4-((2-((4-(4-(4-methylpiperazin-1-yl)piperidin-1-yl)phenyl)amino)pyrimidin-4-yl)amino)pyrimidin-2-yl)phenol] | 0.398 to 3.16 | 25.1 to 158
Cc1cccc(-c2nccc(Nc3ccnc(Nc4ccc(CN5CCC[C@H](C(=O)OCC6CNC6)C5)cc4)n3)n2)n1 [Compound 67, azetidin-3-ylmethyl (3S)-1-[[4-[[4-[[2-(6-methyl-2-pyridyl)pyrimidin-4-yl]amino]pyrimidin-2-yl]amino]phenyl]methyl] piperidine-3-carboxylate] | 0.0398 to 0.316 | 25.1 to 158
Cc1cccc(-c2nccc(Nc3ccnc(Nc4ccc(NC(=O)N5CCNCC5)cc4)n3)n2)n1 [Compound 228, N-(4-((4-((2-(6-methylpyridin-2-yl)pyrimidin-4-yl)amino)pyrimidin-2-yl)amino)phenyl)piperazine-1-carboxamide] | 0.0398 to 0.316 | 25.1 to 158
Cc1cccc(-c2nccc(Nc3ccnc(Nc4cc(C(=O)OC5CNC5)cs4)n3)n2)n1 [Compound 207, azetidin-3-yl 5-[[4-[[2-(6-methyl-2-pyridyl)pyrimidin-4-yl]amino]pyrimidin-2-yl]amino]thiophene-3-carboxylate] | 0.0398 to 0.316 | 25.1 to 158
Cc1ccc(O)cc1-c1nccc(Nc2ccnc(Nc3ccc(N4CCC(N(C)C)CC4)cc3)n2)n1 [Compound 16, 3-[4-[[2-[4-[4-(dimethylamino)-1-piperidyl]anilino]pyrimidin-4-yl]amino]pyrimidin-2-yl]-4-methyl-phenol] | 0.398 to 3.16 | 25.1 to 158
Cc1cccc(-c2nccc(Nc3ccnc(Nc4ccc(NC(=O)C5(O)CCNC5)cc4)n3)n2)n1 (stereo not shown) [Compound 58, 3-hydroxy-N-[4-[[4-[[2-(6-methyl-2-pyridyl)pyrimidin-4-yl]amino]pyrimidin-2-yl]amino]phenyl]pyrrolidine-3-carboxamide] | 0.0398 to 0.316 | ≤ 20
Cc1cccc(-c2nccc(Nc3ccnc(Nc4cccc(CN5CC6CCC(C5)N6)c4)n3)n2)n1 [Compound 332, N2-[3-(3,8-diazabicyclo[3.2.1]octan-3-ylmethyl)phenyl]-N4-[2-(6-methyl-2-pyridyl)pyrimidin-4-yl]pyrimidine-2,4-diamine] | 0.0398 to 0.316 | 25.1 to 158
Cc1cccc(-c2nccc(Nc3ccnc(Nc4ccc(NC(=O)C5CCN(CCN(C)C)CC5)cc4)n3)n2)n1 [Compound 269, 1-[2-(dimethylamino)ethyl]-N-[4-[[4-[[2-(6-methyl-2-pyridyl)pyrimidin-4-yl]amino]pyrimidin-2-yl]amino]phenyl]piperidine-4-carboxamide] | 0.0398 to 0.316 | 200 to 1260
Cc1cccc(-c2nccc(Nc3ccnc(Nc4csc(NC(=O)C5CCNC5)c4)n3)n2)n1 (stereo not shown) [Compound 364, N-[4-[[4-[[2-(6-methyl-2-pyridyl)pyrimidin-4-yl]amino]pyrimidin-2-yl]amino]-2-thienyl]pyrrolidine-3-carboxamide] | ≤ 0.0316 | ≤ 20
Cc1cccc(-c2nccc(Nc3ccnc(Nc4ccc(CN5CCC[C@@H](C(=O)OCC6CN(C)C6)C5)cc4)n3)n2)n1 [Compound 182, (1-methylazetidin-3-yl)methyl (3R)-1-[[4-[[4-[[2-(6-methyl-2-pyridyl)pyrimidin-4-yl]amino]pyrimidin-2-yl]amino]phenyl]methyl] piperidine-3-carboxylate] | 0.0398 to 0.316 | 25.1 to 158
